Experimental data from US10085965B2, “Cannabinoid alcoholic drink” (priority 2016, dated 2018).

Tests used:
[1] = Dissolution of CBD in ethanol and consumable alcohol (precipitation / clarity); assay type: physicochemical
Method: The Combining Cannabinoid Solution with Consumable Alcohol(s) step 156 involves adding the Solution from 154 to a plurality of consumable alcohols measured in 155 in order to create a CAD. In one example, 50 mg of isolated cannabinoid is measured 151. Approximately 5 mL of ethanol is measured 152. The cannabinoid is combined with the ethanol 153. A cannabinoid solution is created by ensuring the cannabinoid is fully dissolved in the ethanol 154. The resulting solution is then combined with one or more consumable alcohols 156. In this example, approximately 745 mL of vodka, to create a standard 750 mL bottle of cannabinoid infused vodka. In other embodiments, other volumes of CADs can be produced. In yet another embodiment, the volume fraction of cannabinoid/ethanol solution in total volume of CADs is equal to or less than 1%.
One particular cannabinoid that can be used is CBD. […] Thus, the CBD and ethanol combine to remain as a fully dissolved, clear solution. […]
The Combining CBD/Ethanol Solution with consumable Alcohol(s) step 256 involves adding the Solution from 254 to the plurality of consumable alcohols measured in 255 in order to create a CAD. In one example, 50 mg of isolated CBD is measured 251. Approximately 5 mL of ethanol is measured 252. […]

[2] = Effects reported by people when the CBD alcoholic drink is consumed; assay type: in vivo; settings: CBD consumed together with alcohol in the drink; reports of consumers
Description: When consumed, the positive effects of the CBD help to offset the deleterious effects of the alcohol.

[3] = tested on: binge alcohol-induced neurodegeneration; settings: transdermal delivery, rodent model; Liputa et al. 2013; cited from earlier work

C=C(C)[C@@H]1CCC(C)=C[C@H]1c1c(O)cc(CCCCC)cc1O [CBD, cannabidiol]
dissolution of CBD in ethanol ([1]; 7.8 mg CBD in 1 mL ethanol): no problem with dissolution | precipitation of CBD from the solution ([1]; amounts/ratios described: 50 mg in approx. 5 mL ethanol, combined with approx. 745 mL vodka, room temperature): will not precipitate out | effects reported when consumed [2]: euphoria, a sense of being upbeat and feeling little to no effect of the alcohol | effect on binge alcohol-induced neurodegeneration [3]: attenuate binge alcohol-induced neurodegeneration
